Drawing on patent US7531509B2, “Papillosin antimicrobial peptide, a gene coding said peptide, a vector, a transformed organism and a compound containing said organism” (Centre National de la Recherche Scientifique—CNRS, priority 2003, dated 2009), this text covers MBC and bacteriolytic activity for one sequence.

In one test the test system is M. luteus. Format: cell-based. Conditions: 18 h. The protocol:
(§1) Complementary tests were carried out to determine the spectrum of activity of papillosin. The minimal bactericidal concentration (MBC) for each bacterial strain tested is determined as follows: The peptide is placed in a solution containing 0.01% acetic acid and 0.2% bovine serum albumin (BSA), then, serial dilutions of 2 2 are realized in the same 0.01% solution of acetic acid and 0.2% BSA. 10 μl of each dilution are incubated in sterile 96-well plates (Becton Dickinson, USA, ref: 18572) in the presence of 100 μl of a bacterial suspension brought to an optical density of 0.001 at 600 nm in the Mueller Hinton environment (MLHB, SIGMA, ref: M-9677).
(§2) The bacterial growth is monitored after 18 hours of incubation under agitation. The MBC is determined by spreading out the content of the first three wells in which no bacterial growth was observed. This spreading out was carried out on Petri dishes on which an agar was poured prepared from the Mueller Hinton environment. These dishes were then incubated 18 hours. The MBC corresponds to the lowest concentration of peptide for which no bacterial colony was observed on the incubated dishes.

In test [1] the test system is gram-positive and gram-negative bacteria. Briefly: Spectrum of antibacterial activity (summary). The settings on record: on gram-positive and gram-negative bacteria. Format: cell-based. The method, then:
as §1, §2

No end group written: not given here.

As a reminder, the MBC is the lowest tested concentration that kills the bacteria rather than only halting them.

With “GFWKKVGSAAWGGVKAAAKGAAVGGLNALAKHIQ [papillosin]”, the MBC against M. luteus lay within 0.125 to 0.25 µM. The bacteriolytic activity entry in test [1] is “powerful bacteriolytic activity”.
